Results taken from KR20050073110A, “간 x 수용체의 항진제” (주식회사 엘지생명과학, priority 2004, dated 2005).

Experiments:
[1] = target: T1, LXRα ligand-binding domain [LXRα 리간드-결합 도메인] (GST-LXRα-LBD) (Homo sapiens, UniProt Q13133); assay: Fluorescence polarization assay (rhodamine-labelled LXXLL peptide recruitment to GST-LXRα-LBD); type: biochemical; details: 10 nM rhodamine-labelled peptide, 200 nM GST-LXRα-LBD, overnight (Fig. 2)
T1 construct: LXRα 리간드-결합 도메인을 글루타치온 S-트랜스퍼라제(GST)의 C-말단에 융합시키고; made in house; host or cells: E. coli
T1 sequence (Q13133 209-447 limits assumed): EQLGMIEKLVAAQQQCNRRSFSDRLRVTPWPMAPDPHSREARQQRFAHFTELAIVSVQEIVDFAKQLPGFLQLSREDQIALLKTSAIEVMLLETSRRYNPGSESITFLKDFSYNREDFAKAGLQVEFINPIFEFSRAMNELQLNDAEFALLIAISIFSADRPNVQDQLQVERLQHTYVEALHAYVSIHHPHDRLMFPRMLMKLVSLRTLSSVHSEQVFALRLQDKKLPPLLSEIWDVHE

LXRα (pGAL-hLXRα-LBD) = target: T2, LXRα (pGAL-hLXRα-LBD) (Homo sapiens, UniProt Q13133); assay: Transient transfection assay (luciferase reporter) in HEK293 / NIH3T3 cells; type: cell-based; details: increasing amounts of compound, without RXRα expression plasmid (Fig. 1)
T2 construct: 수용체 발현 벡터(pGAL-hLXRα-LBD); expressed in transfected cells; host or cells: HEK293 or NIH3T3 cells
T2 sequence (Q13133 209-447 limits assumed): T1 sequence (Q13133 209-447 limits assumed)

[2] = Plasma lipid change experiment in mice; type: in vivo, C57BL/6J mouse; details: 14 days, C57BL/6J mice (n=6), blood 6 h after last dose
CYP7A = CYP7A assay in liver of orally dosed mice; type: in vivo, C57BL/6J mouse; details: C57BL/6J mice (n=6), single oral administration, liver taken after 8 h; dose not given

Structure (SMILES) | fluorescence polarization activity (coactivator peptide recruitment) [1] | luciferase activity (LXRα-mediated transcription) (LXRα (pGAL-hLXRα-LBD)) | increase in plasma HDL cholesterol ([2]; 30 mg/kg oral) | increase in plasma HDL cholesterol ([2]; 100 mg/kg oral) | increase in CYP7A activity in liver (CYP7A)
CC(C)CC[C@@H](O)[C@@H](C)[C@H]1CC[C@H]2[C@@H]3CC=C4C[C@@H](O)CC[C@]4(C)[C@H]3CC[C@]12C [22(R)-하이드록시콜레스테롤, reference compound] | 형광의 증가를 나타내었다 | 용량 의존적으로 루시퍼라제 활성이 증가하였다 | – | – | –
Cc1c(/C=C(\C#N)S(=O)(=O)c2ccccc2)cc(C(C)C)n1-c1ccccc1C(F)(F)F [#44, (E)-2-페닐설포닐-3-[1-(2-트리플루오로메틸페닐)-2-메틸-5-이소프로필피롤-3-일]아크릴로니트릴] | – | 용량 의존적으로 루시퍼라제 활성이 증가하였다 | – | – | –
COC(=O)c1cccc(S(=O)(=O)/C(C#N)=C/c2cc(C(C)C)n(-c3ccccc3C(F)(F)F)c2C)c1 [#182, (E)-2-(3-메톡시카보닐페닐)설포닐-3-[1-(2-트리플루오로메틸페닐)-2-메틸-5-이소프로필피롤-3-일]아크릴로니트릴] | – | 용량 의존적으로 루시퍼라제 활성이 증가하였다 | – | – | –
CC(C)c1cc(/C=C(\C#N)S(=O)(=O)c2ccccc2)cn1-c1ccccc1C(F)(F)F [#189, (E)-2-페닐설포닐-3-[1-(2-트리플루오로메틸페닐)-5-이소프로필피롤-3-일]아크릴로니트릴] | – | – | 18% | 41% | 91%
O=S(=O)(c1ccccc1)N(CC(F)(F)F)c1ccc(C(O)(C(F)(F)F)C(F)(F)F)cc1 [T0901317, reference compound] | 가장 높은 활성을 나타내었고 | 용량 의존적으로 루시퍼라제 활성이 증가하였다 | – | – | –
